# US7238689B2, “Isoxazoline derivative and herbicide comprising the same as active ingredient” (Ihara Chemical Industry Co., Ltd., priority 2001, dated 2007)
# Assays:
# Assay type in all cases: in vivo
# Design in all cases: scale not given here
# [1] = system: Monochoria vaginalis (Murm. f.) Presl var. plantaginea (Roxb.) Solms-Laub.; assay: Herbicidal effect by paddy field soil treatment; conditions: wettable powder, active ingredient 1000 g/ha, examined at the 21st day from the treatment
# Method: (§1) A paddy field soil was filled in a plastic pot of 100 cm^2 and subjected to puddling. Then, seeds of Echinochloa oryzicola Vasing and Monochoria vaginalis (Murm. f.) Presl var. plantaginea (Roxb.) Solms-Laub. were sowed and water was filled in a depth of 3 cm. Next day, wettable powders produced in accordance with the Formulation 1 were diluted with water and dropped on the water surface. The application amount of each wettable powder was 1,000 g per 1 hectare in terms of the active ingredient. Then, breeding was made in a greenhouse, and the herbicidal effect of each wettable powder was examined at the 21st day from the treatment in accordance with the standard shown in Table 21.
# [2] = system: Echinochloa oryzicola Vasing; assay: Herbicidal effect by paddy field soil treatment; conditions: wettable powder, active ingredient 1000 g/ha, examined at the 21st day from the treatment
# Method: as §1
# [3] = system: Echinochloa crus-galli (L.) Beauv. var. crusgalli; assay: Herbicidal effect by upland field soil treatment; conditions: active ingredient 1000 g/ha, examined at 21st day from treatment
# From the text: (§2) An upland field soil was filled in a plastic pot of 80 cm^2. Seeds of Echinochloa crus-galli (L.) Beauv. var. crusgalli and Setaria viridis (L.) Beauv. were sowed, followed by covering with the same soil. […] Then, breeding was made in a greenhouse, and the herbicidal effect of each wettable powder was examined at the 21st day from the treatment in accordance with the standard shown in Table 21.
# [4] = system: Setaria viridis (L.) Beauv.; assay: Herbicidal effect by upland field soil treatment; conditions: active ingredient 1000 g/ha, examined at 21st day from treatment
# From the text: as §2
Structure (SMILES),"Herbicidal effect index, Monochoria vaginalis (Burm. F.) Presl var. plantaginea (Roxb.) Solms-Laub. [1]","Herbicidal effect index, Echinochloa oryzicola Vasing [2]","herbicidal effect (index per standard of Table 21), Echinochloa curs-galli (L.) Beauv. Var. crus-galli [3]","herbicidal effect (index per standard of Table 21), Setaria viridis (L.) Beauv. [4]"
CC1(C)CC(S(=O)(=O)Cc2c(Cl)nn(CC(N)=O)c2C(F)(F)F)=NO1 [3-0139],5,5,5,5
CC1(C)CC(S(=O)(=O)Cc2c(C(F)(F)F)nn(-c3ccccc3)c2C(F)(F)F)=NO1 [3-0153],5,5,5,5
CCOc1c(CS(=O)(=O)C2=NOC(C)(C)C2)c(C(F)(F)F)nn1-c1ccccc1 [3-0156],5,5,5,5
CC1(C)CC(S(=O)(=O)Cc2c(C(F)(F)F)nn(-c3ncccn3)c2Cl)=NO1 [3-0173],5,5,5,5
COc1cc(OC)nc(-n2nc(C(F)(F)F)c(CS(=O)(=O)C3=NOC(C)(C)C3)c2Cl)n1 [3-0174],5,5,5,5
CCC1(C)CC(S(=O)(=O)Cc2c(C(F)(F)F)nn(C)c2Cl)=NO1 (centres unmarked) [3-0180],5,5,5,5
Cc1onc(-c2ccccc2)c1CS(=O)(=O)C1=NOC(C)(C)C1 [4-0007],5,5,5,5
CCOc1snc(C)c1CS(=O)(=O)C1=NOC(C)(C)C1 [4-0008],5,5,5,5
CCOc1c(C)nn(-c2ccccc2)c1CS(=O)(=O)C1=NOC(C)(C)C1 [5-0005],5,5,5,4
Cc1nn(-c2ccccc2)c(CS(=O)(=O)C2=NOC(C)(C)C2)c1OC(F)F [5-0006],5,5,5,5
CC1(C)CC(S(=O)(=O)Cc2nn(-c3ccccc3)cc2OC(F)F)=NO1 [6-0003],5,5,5,5
CC1(C)CC(S(=O)(=O)Cc2ccc[n+]([O-])c2)=NO1 [7-0004],5,5,5,4
CC1(C)CC(S(=O)(=O)Cc2nc(-c3ccccc3)no2)=NO1 [9-0006],5,5,5,4
CC1(C)CC(S(=O)(=O)Cc2sc3ccccc3c2Cl)=NO1 [10-0003],5,5,5,5
CC1(C)CC(S(=O)(=O)Cn2nnc3ccccc32)=NO1 [10-0004],5,5,5,5
Cn1ncc2c(CS(=O)(=O)C3=NOC(C)(C)C3)cccc21 [10-0005],5,5,5,5
CC1(C)CC(S(=O)(=O)Cc2nc3ccccc3s2)=NO1 [10-0006],5,5,5,4
CC1(C)CC(S(=O)(=O)Cc2nc3ccccc3o2)=NO1 [10-0009],5,5,5,5
CC1(C)CC(S(=O)(=O)Cc2cc3ccccc3o2)=NO1 [10-0012],5,5,5,4
Cc1cc2cccc(CS(=O)(=O)C3=NOC(C)(C)C3)c2o1 [10-0013],5,5,5,5
CC1(C)CC(S(=O)(=O)Cc2oc3ccccc3c2Br)=NO1 [10-0014],5,5,5,5
CC1(C)CC(S(=O)(=O)Cc2cccc3ccsc23)=NO1 [10-0015],5,5,5,5
Cn1ncc2cccc(CS(=O)(=O)C3=NOC(C)(C)C3)c21 [10-0016],5,5,5,4
